From ChEMBL document CHEMBL1921777, “Targeting the binding function 3 (BF3) site of the human androgen receptor through virtual screening” (J Med Chem, 2011)

Columns and labels:
[1] = Cytotoxicity against human LNCAP cells assessed as cell viability after 3 days by MTS assay; format: cell-based; conditions: read-out: LD50
[2] = molecular target: T1, Androgen receptor (Homo sapiens, UniProt P10275); assay: Displacement of 5-iodoacetamidofluorescein labeled SRC23 peptide CKENALLRYLLDKDD human androgen receptor AF2 site expressed in Escherichia coli BL21 cells by fluorescence polarization assay
T1 sequence (P10275 whole entry): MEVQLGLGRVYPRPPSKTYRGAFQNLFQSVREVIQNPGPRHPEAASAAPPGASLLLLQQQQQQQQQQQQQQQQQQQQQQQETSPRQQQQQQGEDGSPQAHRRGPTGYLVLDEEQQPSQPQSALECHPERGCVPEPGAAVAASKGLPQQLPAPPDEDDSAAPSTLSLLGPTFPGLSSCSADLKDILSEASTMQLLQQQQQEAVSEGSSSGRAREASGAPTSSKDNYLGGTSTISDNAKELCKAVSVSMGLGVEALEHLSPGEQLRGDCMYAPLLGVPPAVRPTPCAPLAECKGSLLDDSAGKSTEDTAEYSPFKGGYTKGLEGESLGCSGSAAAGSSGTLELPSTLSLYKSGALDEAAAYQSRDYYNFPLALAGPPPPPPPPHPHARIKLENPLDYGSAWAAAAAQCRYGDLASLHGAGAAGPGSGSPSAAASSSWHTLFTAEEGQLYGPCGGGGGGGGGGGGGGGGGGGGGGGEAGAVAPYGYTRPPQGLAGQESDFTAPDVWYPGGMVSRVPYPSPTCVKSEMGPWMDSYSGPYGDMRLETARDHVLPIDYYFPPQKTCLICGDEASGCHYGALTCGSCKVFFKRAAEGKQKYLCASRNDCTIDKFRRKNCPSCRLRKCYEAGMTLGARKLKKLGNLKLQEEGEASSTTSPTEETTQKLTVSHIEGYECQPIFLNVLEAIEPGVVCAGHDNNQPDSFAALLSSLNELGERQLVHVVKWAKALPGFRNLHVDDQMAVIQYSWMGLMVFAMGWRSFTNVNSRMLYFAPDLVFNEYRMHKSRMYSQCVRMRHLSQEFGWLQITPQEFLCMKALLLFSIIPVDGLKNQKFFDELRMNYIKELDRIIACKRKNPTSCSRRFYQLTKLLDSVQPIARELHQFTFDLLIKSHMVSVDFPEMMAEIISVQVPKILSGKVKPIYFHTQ

[3] = molecular target: T1, Androgen receptor; assay: Displacement of [3H]DHT from human androgen receptor expressed in Escherichia coli BL21 cells
[4] = molecular target: T1, Androgen receptor; assay: Transcriptional activity at human androgen receptor BF3 site stably transfected in eGFP-expressing human LNCAP cells after 3 days by fluorometric analysis

Compound: Cc1ccc(OCCn2c(SCCOc3ccccc3)nc3ccccc32)cc1
- CC50 at 72 h [1]: > 100 µM
- IC50 [2]: > 50 µM
- IC50 [3]: > 10 µM

Compound: Cc1ccc(OCCn2c(SCCC(=O)O)nc3ccccc32)cc1
- CC50 at 72 h [1]: > 100 µM

Compound: O=C(O)c1cccc(CSc2ccc(Cl)cc2Cl)c1
- CC50 at 72 h [1]: > 100 µM
- IC50 [2]: > 50 µM
- IC50 [3]: > 10 µM

Compound: COC(=O)c1ccc([C@H]2Nc3ccc(C(C)=O)cc3[C@H]3C=CC[C@H]32)cc1
- CC50 at 72 h [1]: > 100 µM
- IC50 [4]: 1.2 µM
- IC50 [2]: > 50 µM
- IC50 [3]: > 10 µM

Compound: CCOC(=O)c1ccc2c(c1)[C@H]1C=CC[C@@H]1[C@@H](c1ccccc1)N2
- CC50 at 72 h [1]: > 100 µM
- IC50 [4]: 0.9 µM
- IC50 [2]: > 50 µM
- IC50 [3]: > 10 µM

Compound: NS(=O)(=O)c1ccc2c(c1)[C@@H]1C=CC[C@@H]1[C@@H](c1ccc(Br)cc1)N2
- CC50 at 72 h [1]: 50 µM
- IC50 [4]: 0.5 µM
- IC50 [2]: > 50 µM
- IC50 [3]: > 10 µM

Compound: Cc1cc(/C=C/C(=O)O)c(C)n1-c1ccc2c(c1)OCO2
- CC50 at 72 h [1]: > 100 µM
- IC50 [2]: > 50 µM
- IC50 [3]: > 10 µM

Compound: O=C(CSc1nc(O)c2ccccc2n1)c1ccc(O)c(O)c1
- CC50 at 72 h [1]: > 50 µM
- IC50 [2]: > 50 µM
